{"source": "paper PMC11801715", "about": "“Activating PKC-ε induces HIV expression with improved tolerability” (PLOS Pathogens, 2025)", "key": {"[1]": {"assay": "Free fraction in cell culture media", "format": "in vitro ADME"}, "PKC-η": {"molecular_target": "PKC-η (Homo sapiens, UniProt P24723)", "sequence (P24723 whole entry, canonical isoform)": "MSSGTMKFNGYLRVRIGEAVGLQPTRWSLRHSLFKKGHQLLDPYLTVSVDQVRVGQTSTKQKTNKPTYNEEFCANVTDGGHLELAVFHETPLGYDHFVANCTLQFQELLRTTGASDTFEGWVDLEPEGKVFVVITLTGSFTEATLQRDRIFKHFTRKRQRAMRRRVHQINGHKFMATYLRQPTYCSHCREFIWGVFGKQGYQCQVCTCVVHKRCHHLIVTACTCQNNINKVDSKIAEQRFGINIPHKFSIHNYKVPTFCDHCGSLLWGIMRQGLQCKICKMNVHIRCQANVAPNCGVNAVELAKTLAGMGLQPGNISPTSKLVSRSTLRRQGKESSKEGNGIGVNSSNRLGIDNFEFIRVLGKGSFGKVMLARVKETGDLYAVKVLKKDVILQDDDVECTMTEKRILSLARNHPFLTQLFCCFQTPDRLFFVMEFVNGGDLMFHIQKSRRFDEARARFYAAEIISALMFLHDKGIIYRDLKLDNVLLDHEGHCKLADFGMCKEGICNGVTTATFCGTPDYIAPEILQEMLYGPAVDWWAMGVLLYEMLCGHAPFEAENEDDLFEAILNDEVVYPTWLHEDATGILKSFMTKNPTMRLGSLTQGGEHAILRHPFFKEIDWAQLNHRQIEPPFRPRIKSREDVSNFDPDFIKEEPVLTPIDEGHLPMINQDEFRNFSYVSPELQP", "assay": "Z'-LYTE kinase activity assay", "format": "biochemical", "settings": "ATP at Kmapp, 2 μM peptide substrate; read-out: IC50 for novel PKC isoforms, PKC-η", "from_the_text": "(§1) In this assay, phosphorylation of a synthetic FRET-peptide substrate protects the peptide from cleavage by the development reagent and prevents disruption of the FRET signal."}, "PKC-δ": {"molecular_target": "PKC-δ (Homo sapiens, UniProt Q05655)", "sequence (Q05655 whole entry, canonical isoform)": "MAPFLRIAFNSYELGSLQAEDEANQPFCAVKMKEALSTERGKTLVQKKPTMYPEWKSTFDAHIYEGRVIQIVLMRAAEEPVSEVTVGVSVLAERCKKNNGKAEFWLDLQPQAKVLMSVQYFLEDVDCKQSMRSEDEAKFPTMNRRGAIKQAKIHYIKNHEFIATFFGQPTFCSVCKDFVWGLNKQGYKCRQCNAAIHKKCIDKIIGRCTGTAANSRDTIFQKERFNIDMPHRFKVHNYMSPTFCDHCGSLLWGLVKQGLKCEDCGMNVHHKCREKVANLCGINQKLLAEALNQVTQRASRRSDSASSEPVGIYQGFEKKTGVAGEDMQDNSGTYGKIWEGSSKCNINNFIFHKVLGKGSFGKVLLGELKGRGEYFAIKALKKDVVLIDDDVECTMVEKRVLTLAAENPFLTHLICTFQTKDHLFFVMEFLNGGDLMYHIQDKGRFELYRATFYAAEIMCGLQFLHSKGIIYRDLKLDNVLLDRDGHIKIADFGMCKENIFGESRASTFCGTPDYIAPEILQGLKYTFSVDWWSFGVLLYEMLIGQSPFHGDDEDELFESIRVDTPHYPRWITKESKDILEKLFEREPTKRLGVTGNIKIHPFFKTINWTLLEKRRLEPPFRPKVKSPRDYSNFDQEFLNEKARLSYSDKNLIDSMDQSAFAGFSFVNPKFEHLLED", "assay": "Z'-LYTE kinase activity assay", "format": "biochemical", "settings": "ATP at Kmapp, 2 μM peptide substrate; read-out: IC50 for novel PKC isoforms, PKC-δ", "from_the_text": "as §1"}, "PKC-γ": {"molecular_target": "PKC-γ (Homo sapiens, UniProt P05129)", "assay": "Z'-LYTE kinase activity assay", "format": "biochemical", "settings": "ATP at Kmapp, 2 μM peptide substrate; read-out: IC50 for classical PKC isoforms, PKC-γ", "from_the_text": "as §1"}, "PKC-β1": {"molecular_target": "PKC-β1 (Homo sapiens, UniProt P05771)", "sequence (P05771 whole entry, canonical isoform)": "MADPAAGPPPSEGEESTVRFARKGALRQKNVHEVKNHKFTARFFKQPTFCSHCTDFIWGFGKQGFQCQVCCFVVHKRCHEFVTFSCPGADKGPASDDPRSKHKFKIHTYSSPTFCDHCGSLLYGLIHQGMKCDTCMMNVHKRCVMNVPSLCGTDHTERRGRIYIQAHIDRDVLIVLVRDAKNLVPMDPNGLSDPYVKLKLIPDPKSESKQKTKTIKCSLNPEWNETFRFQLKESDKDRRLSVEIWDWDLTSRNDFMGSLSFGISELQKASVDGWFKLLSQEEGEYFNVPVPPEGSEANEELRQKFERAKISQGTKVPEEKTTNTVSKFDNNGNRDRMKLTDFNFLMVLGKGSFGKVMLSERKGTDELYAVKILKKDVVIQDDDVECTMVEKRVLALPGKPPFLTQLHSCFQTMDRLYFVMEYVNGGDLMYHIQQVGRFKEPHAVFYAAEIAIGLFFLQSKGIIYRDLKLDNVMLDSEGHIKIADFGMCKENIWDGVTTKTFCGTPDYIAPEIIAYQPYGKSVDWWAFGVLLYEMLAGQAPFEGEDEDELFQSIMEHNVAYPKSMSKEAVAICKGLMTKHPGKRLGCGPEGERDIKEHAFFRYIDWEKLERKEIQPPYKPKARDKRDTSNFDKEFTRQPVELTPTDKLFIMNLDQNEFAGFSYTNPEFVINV", "assay": "Z'-LYTE kinase activity assay", "format": "biochemical", "settings": "ATP at Kmapp, 2 μM peptide substrate; read-out: IC50 for classical PKC isoforms, PKC-β1", "from_the_text": "as §1"}, "PKC-θ": {"molecular_target": "PKC-θ (Homo sapiens, UniProt Q04759)", "sequence (Q04759 whole entry, canonical isoform)": "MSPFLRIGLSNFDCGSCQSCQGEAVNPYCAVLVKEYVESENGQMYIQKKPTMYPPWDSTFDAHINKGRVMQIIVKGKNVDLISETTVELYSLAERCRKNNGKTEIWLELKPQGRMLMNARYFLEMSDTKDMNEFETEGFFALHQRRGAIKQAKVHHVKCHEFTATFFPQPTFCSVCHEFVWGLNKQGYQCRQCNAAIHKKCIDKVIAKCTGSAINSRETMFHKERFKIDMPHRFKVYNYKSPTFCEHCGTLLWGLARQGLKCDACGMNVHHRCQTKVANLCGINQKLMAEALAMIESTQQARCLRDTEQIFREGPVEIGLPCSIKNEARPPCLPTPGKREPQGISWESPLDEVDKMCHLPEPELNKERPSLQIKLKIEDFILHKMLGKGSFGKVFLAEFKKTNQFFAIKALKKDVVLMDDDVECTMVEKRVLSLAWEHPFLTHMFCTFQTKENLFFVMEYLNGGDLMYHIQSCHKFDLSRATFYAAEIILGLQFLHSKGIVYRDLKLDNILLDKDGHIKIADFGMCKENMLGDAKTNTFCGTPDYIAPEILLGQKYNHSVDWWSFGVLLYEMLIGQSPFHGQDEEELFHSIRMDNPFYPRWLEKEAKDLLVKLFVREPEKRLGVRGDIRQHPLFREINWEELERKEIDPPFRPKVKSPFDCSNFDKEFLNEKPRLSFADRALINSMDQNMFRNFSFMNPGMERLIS", "assay": "Z'-LYTE kinase activity assay", "format": "biochemical", "settings": "ATP at Kmapp, 2 μM peptide substrate; read-out: IC50 for novel PKC isoforms, PKC-θ", "from_the_text": "as §1"}, "PKC-β2": {"molecular_target": "PKC-β2 (Homo sapiens, UniProt P05771)", "sequence (P05771 1-673 isoform P05771-2)": "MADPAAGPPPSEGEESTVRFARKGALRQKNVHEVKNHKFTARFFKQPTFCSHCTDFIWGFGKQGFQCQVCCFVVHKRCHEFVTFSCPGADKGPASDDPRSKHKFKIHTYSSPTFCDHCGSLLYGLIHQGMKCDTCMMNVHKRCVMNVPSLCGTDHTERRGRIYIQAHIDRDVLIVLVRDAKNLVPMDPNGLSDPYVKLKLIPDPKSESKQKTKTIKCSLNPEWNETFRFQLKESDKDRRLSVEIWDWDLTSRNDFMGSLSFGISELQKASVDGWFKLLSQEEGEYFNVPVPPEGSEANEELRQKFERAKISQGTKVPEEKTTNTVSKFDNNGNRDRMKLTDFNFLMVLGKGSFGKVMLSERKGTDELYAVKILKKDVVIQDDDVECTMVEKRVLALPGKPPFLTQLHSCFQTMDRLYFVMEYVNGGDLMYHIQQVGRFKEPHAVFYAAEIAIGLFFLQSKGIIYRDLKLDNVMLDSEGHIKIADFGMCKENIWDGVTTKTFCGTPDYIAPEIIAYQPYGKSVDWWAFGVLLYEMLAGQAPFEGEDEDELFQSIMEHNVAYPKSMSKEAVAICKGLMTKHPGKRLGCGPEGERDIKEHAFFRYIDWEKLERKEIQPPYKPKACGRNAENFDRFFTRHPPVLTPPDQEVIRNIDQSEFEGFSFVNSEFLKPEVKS", "assay": "Z'-LYTE kinase activity assay", "format": "biochemical", "settings": "ATP at Kmapp, 2 μM peptide substrate; read-out: IC50 for classical PKC isoforms, PKC-β2", "from_the_text": "as §1"}, "PKC-α": {"molecular_target": "PKC-α (Homo sapiens, UniProt P17252)", "assay": "Z'-LYTE kinase activity assay", "format": "biochemical", "settings": "ATP at Kmapp, 2 μM peptide substrate; read-out: IC50 for classical PKC isoforms, PKC-α", "from_the_text": "as §1"}, "PKC-ε": {"molecular_target": "T1, PKC-ε (Homo sapiens, UniProt Q02156)", "T1 sequence (Q02156 1-737)": "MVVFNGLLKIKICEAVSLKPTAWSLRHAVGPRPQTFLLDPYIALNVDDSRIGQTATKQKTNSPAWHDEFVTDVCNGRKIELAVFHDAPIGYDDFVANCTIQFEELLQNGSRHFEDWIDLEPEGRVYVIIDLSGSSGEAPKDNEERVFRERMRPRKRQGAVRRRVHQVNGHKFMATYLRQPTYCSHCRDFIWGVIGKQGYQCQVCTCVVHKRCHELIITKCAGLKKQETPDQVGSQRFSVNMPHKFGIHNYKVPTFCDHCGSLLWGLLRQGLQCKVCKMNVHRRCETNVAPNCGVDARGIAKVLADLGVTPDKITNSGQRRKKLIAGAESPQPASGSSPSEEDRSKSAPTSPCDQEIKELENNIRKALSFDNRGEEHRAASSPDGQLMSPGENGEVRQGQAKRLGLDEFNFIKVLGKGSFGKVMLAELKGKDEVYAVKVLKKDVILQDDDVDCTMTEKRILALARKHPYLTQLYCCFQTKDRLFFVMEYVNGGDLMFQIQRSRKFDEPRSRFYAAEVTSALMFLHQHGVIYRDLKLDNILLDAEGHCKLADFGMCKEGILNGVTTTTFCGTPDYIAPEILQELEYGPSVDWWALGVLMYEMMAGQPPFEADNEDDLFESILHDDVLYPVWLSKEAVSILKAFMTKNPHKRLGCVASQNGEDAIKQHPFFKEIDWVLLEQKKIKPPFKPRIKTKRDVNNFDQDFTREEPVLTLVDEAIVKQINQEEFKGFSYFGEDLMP", "assay": "Z'-LYTE kinase activity assay", "format": "biochemical", "from_the_text": "as §1"}, "[2]": {"test_system": "classical and novel PKC isoforms", "assay": "Estimated PKC inhibition in cell culture from Z'-LYTE IC50 and free fraction", "format": "biochemical", "settings": "5 µM, 46% free in cell culture media", "from_the_text": "as §1"}, "[3]": {"test_system": "latent HIV in total CD4+ T cells", "assay": "microbe, parasite or virus in culture", "format": "cell-based, HIV-1", "settings": "inhibitor 5 μM with DMSO, no agonist", "procedure": "Peripheral blood mononuclear cells and CD4^+ T cells used for evaluating PKC agonist and inhibitor molecules were isolated from leukopaks of selected participants as described previously. Isolated CD4^+ T cells (5×10^6 cells/well) were added to 24-well tissue culture plates in 2.5 mL of RPMI medium containing 100 nM each of elvitegravir and efavirenz. Cells were stimulated with DMSO (vehicle control) or the indicated concentrations of PKC agonist molecules. Cells were pretreated with PKC isoform inhibitors (Selleck Chemicals) for 1 hour before addition of PKC agonist at indicated concentrations and maintained at 37 °C, 5% CO2 for 3 days. Cell supernatants from each well were analyzed using the Cobas […] system for quantification of HIV-1 RNA using the HIV-1 test v2.0 kit (Roche Diagnostics)."}}, "data": [{"compound": "CN(C)CCCn1cc(C2=C(c3c[nH]c4ccccc34)C(=O)NC2=O)c2ccccc21", "note": "[Gӧ-6850]", "values": [{"measurement": "free in cell culture media", "setting": "[1]", "result": 46, "unit": "%"}, {"measurement": "IC50", "setting": "PKC-η", "result": 11.3, "unit": "nM"}, {"measurement": "IC50", "setting": "PKC-δ", "result": 9.63, "unit": "nM"}, {"measurement": "IC50", "setting": "PKC-γ", "result": 2.18, "unit": "nM"}, {"measurement": "IC50", "setting": "PKC-β1", "result": 0.457, "unit": "nM"}, {"measurement": "IC50", "setting": "PKC-θ", "result": 3, "unit": "nM"}, {"measurement": "IC50", "setting": "PKC-β2", "result": 0.331, "unit": "nM"}, {"measurement": "IC50", "setting": "PKC-α", "result": 2.53, "unit": "nM"}, {"measurement": "inhibition at 5 µM", "setting": "PKC-ε; 5 µM, 46% free in cell culture media, read-out: estimated inhibition of PKC-ε", "result": 70, "unit": "%"}, {"measurement": "IC50", "setting": "PKC-ε; ATP at Kmapp, 2 μM peptide substrate, read-out: IC50 for novel PKC isoforms, PKC-ε", "result": 67.6, "unit": "nM"}, {"measurement": "estimated inhibition of all classical and novel isoforms, except PKC-ε", "setting": "[2]", "result": "> 90", "unit": "%"}, {"measurement": "HIV RNA Fold∆ over DMSO, Geomean", "setting": "[3]", "result": 1.2, "unit": "fold"}]}]}
